Reference: ChEMBL document CHEMBL4265893, “Design, synthesis and biological evaluation of ring A modified 11-keto-boswellic acid derivatives as Pin1 inhibitors with remarkable anti-prostate cancer activity” (Bioorg Med Chem Lett, 2018)

How the values were obtained:
[1] = system: PC-3; test: Antiproliferative activity against human PC3 cells after 96 hrs by MTT assay; assay type: functional; conditions: PC-3, 96 h
[2] = target: T1, Peptidyl-prolyl cis-trans isomerase NIMA-interacting 1 (Homo sapiens, UniProt Q13526); test: Inhibition of recombinant N-terminal His6-tagged human Pin1 at 10 uM using Suc-Ala-Glu-cis-Pro-Phe-4-nitroanilide as substrate preincubated for 30 mins followed by substrate addition measured for 90 secs
[3] = target: T1, Peptidyl-prolyl cis-trans isomerase NIMA-interacting 1; test: Inhibition of recombinant N-terminal His6-tagged human Pin1 using Suc-Ala-Glu-cis-Pro-Phe-4-nitroanilide as substrate preincubated for 30 mins followed by substrate addition measured for 90 secs
[4] = system: PC-3; test: Induction of apoptosis in human PC3 cells assessed as downregulation of Cyclin D1 expression after 24 hrs by Western blot analysis; assay type: functional, cell-based
[5] = system: PC-3; test: Cell cycle arrest in human PC3 cells assessed as accumulation at G0/G1 phase at 0.25 uM after 24 hrs by RNase/propidium iodide staining-based flow cytometric analysis (reference value: 55.03%); assay type: functional
[6] = system: PC-3; test: Cell cycle arrest in human PC3 cells assessed as accumulation at G0/G1 phase at 1 uM after 24 hrs by RNase/propidium iodide staining-based flow cytometric analysis (reference value: 55.03%); assay type: functional
[7] = system: PC-3; test: Cell cycle arrest in human PC3 cells assessed as accumulation at G0/G1 phase at 0.5 uM after 24 hrs by RNase/propidium iodide staining-based flow cytometric analysis (reference value: 55.03%); assay type: functional

T1 sequence (Q13526 whole entry): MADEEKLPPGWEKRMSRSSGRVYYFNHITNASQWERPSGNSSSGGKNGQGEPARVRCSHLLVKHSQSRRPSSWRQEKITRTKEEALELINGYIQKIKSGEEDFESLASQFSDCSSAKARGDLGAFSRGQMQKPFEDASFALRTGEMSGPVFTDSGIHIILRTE

SMILES | GI50 [1] [µM] | inhibition [2] [%] | IC50 [3] [nM] | Activity [4] | Activity [5] [%] | Activity [6] [%] | Activity [7] [%]
COC(=O)[C@@]1(C)C(=O)/C(=C/C(=O)O)C[C@]2(C)[C@H]3C(=O)C=C4[C@@H]5[C@@H](C)[C@H](C)CC[C@]5(C)CC[C@@]4(C)[C@]3(C)CC[C@@H]12 | 8 | 51 | – | – | – | – | –
CC(=O)O[C@@H]1CC[C@@]2(C)[C@@H](CC[C@]3(C)[C@@H]2C(=O)C=C2[C@@H]4[C@@H](C)[C@H](C)CC[C@]4(C)CC[C@]23C)[C@@]1(C)C(=O)O [AKBA] | 31.9 | 26 | 50400 | – | – | – | –
C[C@H]1[C@H](C)CC[C@]2(C)CC[C@]3(C)C(=CC(=O)[C@@H]4[C@@]5(C)CC[C@@H](OC(=O)CN(C)c6ccccc6)[C@](C)(C(=O)O)[C@@H]5CC[C@]43C)[C@H]12 | 13.7 | 94 | 1270 | – | – | – | –
C[C@H]1[C@H](C)CC[C@]2(C)CC[C@]3(C)C(=CC(=O)[C@@H]4[C@@]5(C)C/C(=C\C(=O)O)C(=O)[C@](C)(C(=O)N6CCOCC6)[C@@H]5CC[C@]43C)[C@H]12 | 2.78 | 82 | 2680 | – | – | – | –
C[C@H]1[C@H](C)CC[C@]2(C)CC[C@]3(C)C(=CC(=O)[C@@H]4[C@@]5(C)CC[C@@H](OC(=O)COc6ccc(-c7cc(-c8ccccc8)[nH]n7)cc6)[C@](C)(C(=O)O)[C@@H]5CC[C@]43C)[C@H]12 | 7.8 | 66 | – | – | – | – | –
C[C@H]1[C@H](C)CC[C@]2(C)CC[C@]3(C)C(=CC(=O)[C@@H]4[C@@]5(C)CC[C@@H](OC(=O)CNc6ccccc6)[C@](C)(C(=O)O)[C@@H]5CC[C@]43C)[C@H]12 | 12.1 | 46 | – | – | – | – | –
C[C@H]1[C@H](C)CC[C@]2(C)CC[C@]3(C)C(=CC(=O)[C@@H]4[C@@]5(C)C/C(=C\C(=O)O)C(=O)[C@](C)(C(=O)N6CCCCC6)[C@@H]5CC[C@]43C)[C@H]12 | 7.11 | 89 | 550 | – | – | – | –
C[C@H]1[C@H](C)CC[C@]2(C)CC[C@]3(C)C(=CC(=O)[C@@H]4[C@@]5(C)Cc6c(C(=O)O)n[nH]c6[C@](C)(C(=O)OCc6ccccc6)[C@@H]5CC[C@]43C)[C@H]12 | 22.7 | 31 | – | – | – | – | –
C[C@H]1[C@H](C)CC[C@]2(C)CC[C@]3(C)C(=CC(=O)[C@@H]4[C@@]5(C)C/C(=C\c6ccccc6)C(=O)[C@](C)(C(=O)OCc6ccccc6)[C@@H]5CC[C@]43C)[C@H]12 | > 50 | 37 | – | – | – | – | –
C[C@H]1[C@H](C)CC[C@]2(C)CC[C@]3(C)C(=CC(=O)[C@@H]4[C@@]5(C)CC[C@@H](OC(=O)CN6CCN(c7cccc(C(F)(F)F)c7)CC6)[C@](C)(C(=O)O)[C@@H]5CC[C@]43C)[C@H]12 | 12.5 | 80 | 2180 | – | – | – | –
C[C@H]1[C@H](C)CC[C@]2(C)CC[C@]3(C)C(=CC(=O)[C@@H]4[C@@]5(C)Cc6c(C(=O)O)noc6[C@](C)(C(=O)OCc6ccccc6)[C@@H]5CC[C@]43C)[C@H]12 | 26.9 | 29 | – | – | – | – | –
CC(=O)N1N=C(c2ccc(OCC(=O)O[C@@H]3CC[C@@]4(C)[C@@H](CC[C@]5(C)[C@@H]4C(=O)C=C4[C@@H]6[C@@H](C)[C@H](C)CC[C@]6(C)CC[C@]45C)[C@@]3(C)C(=O)O)cc2)CC1c1ccccc1 (some centres undefined) | 9.42 | 32 | – | – | – | – | –
COC(=O)[C@@]1(C)c2[nH]nc(C(=O)O)c2C[C@@]2(C)[C@H]1CC[C@]1(C)[C@@H]2C(=O)C=C2[C@@H]3[C@@H](C)[C@H](C)CC[C@]3(C)CC[C@]21C | 37.6 | 56 | – | – | – | – | –
C[C@H]1[C@H](C)CC[C@]2(C)CC[C@]3(C)C(=CC(=O)[C@@H]4[C@@]5(C)CC[C@@H](OC(=O)CN6CCNCC6)[C@](C)(C(=O)O)[C@@H]5CC[C@]43C)[C@H]12 | > 50 | 49 | – | – | – | – | –
CC1CCN(CC(=O)O[C@@H]2CC[C@@]3(C)[C@@H](CC[C@]4(C)[C@@H]3C(=O)C=C3[C@@H]5[C@@H](C)[C@H](C)CC[C@]5(C)CC[C@]34C)[C@@]2(C)C(=O)O)CC1 | 15.6 | 78 | – | – | – | – | –
COC(=O)[C@@]1(C)c2onc(C(=O)O)c2C[C@@]2(C)[C@H]1CC[C@]1(C)[C@@H]2C(=O)C=C2[C@@H]3[C@@H](C)[C@H](C)CC[C@]3(C)CC[C@]21C | 37.6 | 41 | – | – | – | – | –
CCN(CC)CC(=O)O[C@@H]1CC[C@@]2(C)[C@@H](CC[C@]3(C)[C@@H]2C(=O)C=C2[C@@H]4[C@@H](C)[C@H](C)CC[C@]4(C)CC[C@]23C)[C@@]1(C)C(=O)O | 10.7 | 58 | – | – | – | – | –
C[C@H]1[C@H](C)CC[C@]2(C)CC[C@]3(C)C(=CC(=O)[C@@H]4[C@@]5(C)CC[C@@H](OC(=O)CN6CCCCC6)[C@](C)(C(=O)O)[C@@H]5CC[C@]43C)[C@H]12 | 11.6 | 95 | 1010 | – | – | – | –
COC(=O)[C@@]1(C)C(=O)/C(=C/c2ccc(C(=O)O)cc2)C[C@]2(C)[C@H]3C(=O)C=C4[C@@H]5[C@@H](C)[C@H](C)CC[C@]5(C)CC[C@@]4(C)[C@]3(C)CC[C@@H]12 | > 50 | 43 | – | – | – | – | –
COC(=O)[C@@]1(C)C(=O)/C(=C/c2ccccc2C(=O)O)C[C@]2(C)[C@H]3C(=O)C=C4[C@@H]5[C@@H](C)[C@H](C)CC[C@]5(C)CC[C@@]4(C)[C@]3(C)CC[C@@H]12 | 15.2 | 69 | – | – | – | – | –
C[C@H]1[C@H](C)CC[C@]2(C)CC[C@]3(C)C(=CC(=O)[C@@H]4[C@@]5(C)CC[C@@H](OC(=O)CN(CCO)CCO)[C@](C)(C(=O)O)[C@@H]5CC[C@]43C)[C@H]12 | > 50 | 59 | – | – | – | – | –
C[C@H]1[C@H](C)CC[C@]2(C)CC[C@]3(C)C(=CC(=O)[C@@H]4[C@@]5(C)C/C(=C\C(=O)O)C(=O)[C@](C)(C(=O)OCc6ccccc6)[C@@H]5CC[C@]43C)[C@H]12 | 1.82 | 97 | 460 | Dose-dependent effect | 62.35 | 72 | 67.62
C[C@H]1[C@H](C)CC[C@]2(C)CC[C@]3(C)C(=CC(=O)[C@@H]4[C@@]5(C)CC[C@@H](OC(=O)CN6CCN(C)CC6)[C@](C)(C(=O)O)[C@@H]5CC[C@]43C)[C@H]12 | 37.9 | 24 | – | – | – | – | –
C[C@H]1[C@H](C)CC[C@]2(C)CC[C@]3(C)C(=CC(=O)[C@@H]4[C@@]5(C)CC[C@@H](OC(=O)CN6CCOCC6)[C@](C)(C(=O)O)[C@@H]5CC[C@]43C)[C@H]12 | 10.6 | 78 | – | – | – | – | –
COc1ccccc1/C=C1\C[C@]2(C)[C@H]3C(=O)C=C4[C@@H]5[C@@H](C)[C@H](C)CC[C@]5(C)CC[C@@]4(C)[C@]3(C)CC[C@H]2[C@@](C)(C(=O)OCc2ccccc2)C1=O | > 50 | 57 | – | – | – | – | –
C[C@H]1[C@H](C)CC[C@]2(C)CC[C@]3(C)C(=CC(=O)[C@@H]4[C@@]5(C)CC[C@@H](OC(=O)COc6ccc(Oc7ccccc7)cc6)[C@](C)(C(=O)O)[C@@H]5CC[C@]43C)[C@H]12 | 12.5 | 90 | 1580 | – | – | – | –
C[C@H]1[C@H](C)CC[C@]2(C)CC[C@]3(C)C(=CC(=O)[C@@H]4[C@@]5(C)C/C(=C\c6ccc(C(=O)O)cc6)C(=O)[C@](C)(C(=O)OCc6ccccc6)[C@@H]5CC[C@]43C)[C@H]12 | 32.1 | 40 | – | – | – | – | –
C[C@H]1[C@H](C)CC[C@]2(C)CC[C@]3(C)C(=CC(=O)[C@@H]4[C@@]5(C)C/C(=C\c6ccccc6C(=O)O)C(=O)[C@](C)(C(=O)OCc6ccccc6)[C@@H]5CC[C@]43C)[C@H]12 | 3.29 | 94 | 680 | – | – | – | –
C[C@H]1[C@H](C)CC[C@]2(C)CC[C@]3(C)C(=CC(=O)[C@@H]4[C@@]5(C)CC[C@@H](OC(=O)COc6ccc(C(=O)/C=C/c7ccccc7)cc6)[C@](C)(C(=O)O)[C@@H]5CC[C@]43C)[C@H]12 | 8.84 | 95 | 970 | – | – | – | –
C[C@H]1[C@H](C)CC[C@]2(C)CC[C@]3(C)C(=CC(=O)[C@@H]4[C@@]5(C)CC[C@@H](OC(=O)COc6ccccc6)[C@](C)(C(=O)O)[C@@H]5CC[C@]43C)[C@H]12 | 18.5 | 35 | – | – | – | – | –
